Assay results from patent publication US9873680B2 (Gilead Sciences, Inc., priority 2014, dated 2018).
Read-outs that look alike come from different tables or passages of the source.

What was measured:
HIV-IIIb = test: Test A: Antiviral Assay in MT4 Cells; format: cell-based, HIV-1; conditions: for inhibition at 2 µM: 2 μM drug concentration, read-out: Response at 2 μM (percent inhibition of virus-induced cell killing)
Protocol: Test A: Antiviral Assay in MT4 Cells
MT-4 cells were next mixed with HIV-IIIb at an m.o.i of 0.003 for 1 hour, after which time 35 μL of virus/cell mixture (2000 cells) was immediately added to each well containing 40 μL of diluted compound. The plates were then incubated at 37° C. for 5 days. After 5 days of incubation, 25 μl of 2× concentrated CellTiter-Glo™ Reagent (catalog #G7571, Promega Biosciences, Inc., Madison, Wis.) was added to each well containing MT-4 cells. Cell lysis was carried out by incubating at room temperature for 10 min and then chemiluminescence was read.

[1] = Test B: Cytotoxicity Assay; format: cell-based; conditions: human, uninfected MT-4 cells, CellTiter-Glo
Protocol: Test B: Cytotoxicity Assay Compound cytotoxicity and the corresponding CC50 values was determined using the same protocol as described in the antiviral assay (Test A) except that uninfected cells were used.

[2] = Human immunodeficiency virus 1, IIIB, MT4, 120 h, read-out: % inhibition at 0.2 μM (percent inhibition of virus-induced cell killing)
[3] = Human immunodeficiency virus 1, IIIB, MT4, 0.2 μM drug concentration, comparison with previously published compounds, read-out: Response at 0.2 μM (percent inhibition of virus-induced cell killing)
[4] = Human immunodeficiency virus 1, IIIB, MT4, comparison with previously published compounds
[5] = Human immunodeficiency virus 1, MT4, 120 h, 0.2 μM drug concentration, MT-4 cells infected with HIV-IIIb, 5 days, values normalized to 100%, average over time, read-out: % inhibition at 0.2 μM (percent inhibition of virus-induced cell killing)

Compound | inhibition at 0.2 µM (HIV-IIIb; [2]) | CC50 at 5 days [1] | inhibition at 0.2 µM (HIV-IIIb; [3]) | inhibition at 2 µM (HIV-IIIb; [4]) | inhibition at 0.2 µM (HIV-IIIb; [5])
Cn1nc(NS(C)(=O)=O)c2c(Cl)ccc(-c3cc(N)c(C#CC4(O)CC(F)(F)C4)nc3[C@H](Cc3cc(F)cc(F)c3)NC(=O)Cn3nc(C(F)(F)F)c4c3C(F)(F)[C@@H]3C[C@H]43)c21 [Compound 100, N—((S)-1-(5-amino-3-(4-chloro-1-methyl-3-(methylsulfonamido)-1H-indazol-7-yl)-6-((3,3-difluoro-1-hydroxycyclobutyl)ethynyl)pyridin-2-yl)-2-(3,5-difluorophenyl)ethyl)-2-((3bS,4aR)-5,5-difluoro-3-(trifluoromethyl)-3b,4,4a,5-tetrahydro-1H-cyclopropa[3,4]cyclopenta[1,2-c]pyrazol-1-yl)acetamide] | 87% | 8.2 µM | – | – | –
Cc1cncc(C#Cc2ncc(-c3ccc(F)c(C(N)=O)c3)c([C@H](Cc3cc(F)cc(F)c3)NC(=O)Cn3nc(C(F)(F)F)c4c3C(F)(F)[C@@H]3C[C@H]43)n2)c1 [Compound 19, 5-(4-((S)-1-(2-((3bS,4aR)-5,5-difluoro-3-(trifluoromethyl)-3b,4,4a,5-tetrahydro-1H-cyclopropa[3,4]cyclopenta[1,2-c]pyrazol-1-yl)acetamido)-2-(3,5-difluorophenyl)ethyl)-2-((5-methylpyridin-3-yl)ethynyl)pyrimidin-5-yl)-2-fluorobenzamide] | – | 4.63 µM | 83% | 88% | 83%
CN1CCN(CC#Cc2ccc(-c3cccc4c(NS(C)(=O)=O)nn(C)c34)c([C@H](Cc3cc(F)cc(F)c3)NC(=O)Cn3nc(C(F)(F)F)c4c3C(F)(F)[C@@H]3C[C@H]43)n2)CC1 [Compound 32, 2-((3bS,4aR)-5,5-difluoro-3-(trifluoromethyl)-3b,4,4a,5-tetrahydro-1H-cyclopropa[3,4]cyclopenta[1,2-c]pyrazol-1-yl)-N—((S)-2-(3,5-difluorophenyl)-1-(3-(1-methyl-3-(methylsulfonamido)-1H-indazol-7-yl)-6-(3-(4-methylpiperazin-1-yl)prop-1-yn-1-yl)pyridin-2-yl)ethyl)acetamide] | – | 8.53 µM | – | – | 95%
Cn1nc(NS(C)(=O)=O)c2c(Cl)ccc(-c3ccc(C#CC4CCCN4C(=O)CO)nc3[C@H](Cc3cc(F)cc(F)c3)NC(=O)Cn3nc(C(F)(F)F)c4c3C(F)(F)[C@@H]3C[C@H]43)c21 (stereo partly drawn) [Compound 66, N-((1S)-1-(3-(4-chloro-1-methyl-3-(methylsulfonamido)-1H-indazol-7-yl)-6-((1-(2-hydroxyacetyl)pyrrolidin-2-yl)ethynyl)pyridin-2-yl)-2-(3,5-difluorophenyl)ethyl)-2-((3bS,4aR)-5,5-difluoro-3-(trifluoromethyl)-3b,4,4a,5-tetrahydro-1H-cyclopropa[3,4]cyclopenta[1,2-c]pyrazol-1-yl)acetamide] | – | 11.6 µM | – | – | 92%
CC(C)(O)C#Cc1ccc(-c2ccc(F)c(C(N)=O)c2)c([C@H](Cc2cc(F)cc(F)c2)NC(=O)Cn2nc(C(F)(F)F)c3c2C(F)(F)[C@@H]2C[C@H]32)n1 [Compound 18, reference compound] | – | – | 96% | 96% | –
O=C(Cc1c[nH]c2ccc(O)cc12)N[C@@H](Cc1cc(F)cc(F)c1)c1ncccc1C#CC1CC1 [Compound 53, reference compound] | – | – | 0% | 33% | –
Cn1nc(NS(C)(=O)=O)c2c(Cl)ccc(-c3ccc(C#CC4(O)CC(F)(F)C4)nc3[C@H](Cc3cc(F)cc(F)c3)NC(=O)Cn3nc(C(F)F)c4c3C(F)(F)[C@@H]3C[C@H]43)c21 [Compound 95E, N—((S)-1-(3-(4-chloro-1-methyl-3-(methylsulfonamido)-1H-indazol-7-yl)-6-((3,3-difluoro-1-hydroxycyclobutyl)ethynyl)pyridin-2-yl)-2-(3,5-difluorophenyl)ethyl)-2-((3bS,4aR)-3-(difluoromethyl)-5,5-difluoro-3b,4,4a,5-tetrahydro-1H-cyclopropa[3,4]cyclopenta[1,2-c]pyrazol-1-yl)acetamide] | 96% | – | – | – | –
